Legend:
C13 [1] = assay: Antimigratory activity in human C13 cells at 10 uM by scratch-wound motility assay; assay type: functional, cell-based; conditions: TDE = time-dependent effect
C13 [2] = assay: Antimigratory activity in human C13 cells after 24 hrs by scratch-wound motility assay; assay type: functional, cell-based
C13 [3] = assay: Antimigratory activity in human C13 cells assessed as delay in wound closure at 15 uM after 24 hrs by scratch-wound motility assay; assay type: functional
[4] = molecular target: T1, NF-kappa-B inhibitor alpha (Homo sapiens, UniProt P25963); assay: Binding affinity to NFKBIA (unknown origin)
T1 sequence (P25963 whole entry): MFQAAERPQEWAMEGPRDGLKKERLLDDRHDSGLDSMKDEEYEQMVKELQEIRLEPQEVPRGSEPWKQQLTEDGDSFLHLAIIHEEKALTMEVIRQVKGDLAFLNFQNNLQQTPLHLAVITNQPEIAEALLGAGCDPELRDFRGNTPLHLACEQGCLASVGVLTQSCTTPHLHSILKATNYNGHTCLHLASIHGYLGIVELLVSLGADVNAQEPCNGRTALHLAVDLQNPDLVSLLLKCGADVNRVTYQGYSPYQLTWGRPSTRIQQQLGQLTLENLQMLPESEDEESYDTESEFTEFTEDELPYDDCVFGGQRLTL

Ephrin type-A receptor 2 = Ephrin type-A receptor 2 (Homo sapiens, UniProt P29317); assay: Binding affinity to recombinant human GST-tagged EphA2 cytoplasmic domain (560 to 976 residues) expressed in baculovirus expression system by fluorescence polarization assay
Homo sapiens = species: Homo sapiens; assay: Selectivity ratio of Kd for GST (unknown origin) to Kd for recombinant human GST-tagged EphA2 cytoplasmic domain (560 to 976 residues) expressed in baculovirus expression system
[5] = Binding affinity to GST (unknown origin) by fluorescence polarization assay; design: species or system Homo sapiens
[6] = molecular target: RAC-alpha serine/threonine-protein kinase (Homo sapiens, UniProt P31749); assay: Binding affinity to AKT1 (unknown origin)
Sequence of RAC-alpha serine/threonine-protein kinase (P31749 whole entry): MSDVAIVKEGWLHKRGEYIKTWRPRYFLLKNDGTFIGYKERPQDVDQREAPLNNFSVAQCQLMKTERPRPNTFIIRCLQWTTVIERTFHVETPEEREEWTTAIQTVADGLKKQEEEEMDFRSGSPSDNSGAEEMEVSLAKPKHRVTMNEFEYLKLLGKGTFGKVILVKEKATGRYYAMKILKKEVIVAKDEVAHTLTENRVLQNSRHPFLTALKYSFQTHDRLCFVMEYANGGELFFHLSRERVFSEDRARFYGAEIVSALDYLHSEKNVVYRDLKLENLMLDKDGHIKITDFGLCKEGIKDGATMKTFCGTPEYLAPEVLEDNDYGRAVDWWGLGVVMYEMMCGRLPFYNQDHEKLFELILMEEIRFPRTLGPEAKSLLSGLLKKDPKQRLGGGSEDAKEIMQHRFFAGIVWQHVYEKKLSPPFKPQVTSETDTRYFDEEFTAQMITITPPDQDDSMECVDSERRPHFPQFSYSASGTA

Sequence of Ephrin type-A receptor 2 (P29317 whole entry, the tested form may be a part): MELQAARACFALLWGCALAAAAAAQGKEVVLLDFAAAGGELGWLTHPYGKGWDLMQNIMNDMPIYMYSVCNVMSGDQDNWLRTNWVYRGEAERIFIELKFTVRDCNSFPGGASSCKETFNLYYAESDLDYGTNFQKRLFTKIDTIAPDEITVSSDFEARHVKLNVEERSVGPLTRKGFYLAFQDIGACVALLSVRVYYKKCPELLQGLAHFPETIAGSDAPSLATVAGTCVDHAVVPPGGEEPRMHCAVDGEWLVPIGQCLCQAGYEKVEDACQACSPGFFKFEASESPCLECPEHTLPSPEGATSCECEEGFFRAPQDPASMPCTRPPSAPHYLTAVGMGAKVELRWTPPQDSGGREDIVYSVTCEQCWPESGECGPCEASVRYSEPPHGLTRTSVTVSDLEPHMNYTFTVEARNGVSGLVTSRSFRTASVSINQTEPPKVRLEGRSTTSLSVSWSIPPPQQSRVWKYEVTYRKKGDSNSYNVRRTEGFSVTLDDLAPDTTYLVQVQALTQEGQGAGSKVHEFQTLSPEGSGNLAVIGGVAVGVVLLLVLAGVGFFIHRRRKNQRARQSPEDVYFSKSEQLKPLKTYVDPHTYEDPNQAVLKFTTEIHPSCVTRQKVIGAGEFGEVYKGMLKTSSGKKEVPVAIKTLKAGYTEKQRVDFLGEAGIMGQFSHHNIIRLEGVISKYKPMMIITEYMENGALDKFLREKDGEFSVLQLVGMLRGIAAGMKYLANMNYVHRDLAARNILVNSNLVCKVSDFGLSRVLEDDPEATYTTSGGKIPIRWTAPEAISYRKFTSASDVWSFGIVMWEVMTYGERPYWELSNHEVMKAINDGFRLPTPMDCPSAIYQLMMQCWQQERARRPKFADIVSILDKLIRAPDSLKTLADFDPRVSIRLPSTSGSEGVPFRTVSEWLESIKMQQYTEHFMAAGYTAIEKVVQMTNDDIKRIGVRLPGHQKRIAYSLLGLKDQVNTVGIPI

With `NC(=O)CN1C[C@H](Cc2ccccc2)NC(=O)CN(C(=O)CCC(=O)O)C[C@H](CCC(=O)O)NC(=O)CN(C(=O)Cc2ccc3c(c2)OCO3)C[C@H](CCC(=O)O)NC(=O)CN(C(=O)CCC2CCCCC2)C[C@H](Cc2ccccc2)NC(=O)c2ccc(cc2)CSCCC1=O` the Activity (C13 [1]) was “Tde”, the Activity (C13 [2]) was “Dose-dependent effect” and the Activity (C13 [3]) was 70%.
Compound `NC(=O)[C@H](CCCCNC(=S)Nc1ccc(-c2c3ccc(=O)cc-3oc3cc(O)ccc23)c(C(=O)O)c1)NC(=O)CN1C[C@H](Cc2ccccc2)NC(=O)CN(C(=O)CCC(=O)O)C[C@H](CCC(=O)O)NC(=O)CN(C(=O)Cc2ccc3c(c2)OCO3)C[C@H](CCC(=O)O)NC(=O)CN(C(=O)CCC2CCCCC2)C[C@H](Cc2ccccc2)NC(=O)c2ccc(cc2)CSCCC1=O` has a Kd [4] of 741 nM, a Kd (Ephrin type-A receptor 2) of 81 nM and a Selectivity ratio (Homo sapiens) of 170. For the same compound, the Kd [5] was 14200 nM and the Kd [6] was 3620 nM.

— ChEMBL document CHEMBL4024759, “One-Bead-Two-Compound Thioether Bridged Macrocyclic γ-AApeptide Screening Library against EphA2” (J Med Chem, 2017)
